Each structure is given as a SMILES string. Structures can show the parent of a compound that is named as a salt.

This test concerns ANGPTL3. Kind of test: RNA-seq of ANGPTL3 expression in compound-treated primary human hepatocytes. In kind it is cell-based. Conditions: additional compounds (Table 13), linear fold change. Here is the method: Human hepatocytes were obtained from two donors from Massachusetts General Hospital, namely MGH54 and MGH63, and one donor from Lonza, namely HUM4111B. Cryopreserved hepatocytes were cultured in plating media for 16 hours, transferred to maintenance media for 4 hours. Cultured on serum-free media for 2 hours, then a compound was added. The hepatocytes were maintained on the serum-free media for 16 hours prior to gene expression analysis. Primary human hepatocytes were stored in the vapor phase of a liquid nitrogen freezer (about −130° C.).
Human hepatocytes cultured as described above were plated in 24-well format, adding 375,000 cells per well in a volume of 500 ul plating medium. Four hours before treatment, cells were washed with PBS and the medium was changed to either: fresh maintenance medium (complete) or modified maintenance medium.
Compound stocks were prepared at 1000× final concentration and added in a 2-step dilution to the medium to reduce risk of a compound precipitating out of solution when added to the cells, and to ensure reasonable pipetting volumes. One at a time, each compound was first diluted 10-fold in warm (about 37° C.) modified maintenance medium (initial dilution=ID), mixed by vortexing, and the ID was diluted 100-fold into the cell culture (e.g. 5.1 ul into 1 well of a 24-well plate containing 0.5 mL medium). The plate was mixed by carefully swirling and after all wells were treated and returned to the incubator overnight. If desired, separate plates/wells were treated with vehicle-only controls and/or positive controls. If using multi-well plates, controls were included on each plate. After about 18 hours, cells were harvested for further analysis, e.g., ChIP-seq, RNA-seq, ATAC-seq, etc.
This protocol is a modified version of the following protocols: MagMAX mirVana Total RNA Isolation Kit User Guide (Applied Biosystems #MAN0011131 Rev B.0), NEBNext Poly(A) mRNA Magnetic Isolation Module (E7490), and NEBNext Ultra Directional RNA Library Prep Kit for Illumina (E7420) (New England Biosystems #E74901).
The MagMAX mirVana kit instructions (the section titled “Isolate RNA from cells” on pages 14-17) were used for isolation of total RNA from cells in culture. Two hundred μl of Lysis Binding Mix was used per well of the multiwell plate containing adherent cells (usually a 24-well plate).
For mRNA isolation and library prep, the NEBNext Poly(A) mRNA Magnetic Isolation Module and Directional Prep kit was used. RNA isolated from cells above was quantified, and prepared in […] of each sample in 50 μl of nuclease-free water. This protocol may be run in microfuge tubes or in a 96-well plate.
All pass filter reads from each sample were mapped against the human genome (assembly GRCh38/GCA_000001405.15 “no alt” analysis set merged with hs38d1/GCA_000786075.2) using two pass mapping via STAR version 2.5.3a (alignment parameters alignIntronMin=20; alignIntronMax=1000000; outFilterMismatchNmax=999; outFilterMismatchNoverLmax=0.05; outFilterType=BySJout; outFilterMultimapNmax=20; alignSJoverhangMin=8; alignSJDBoverhangMin=1; alignMatesGapMax=1000000) (Dobin et al., Bioinformatics (2012) 29(1):15-21). Genomic alignments were converted to transcriptome alignments based on reference transcript annotations from the Human GENCODE Gene Set release 24 (Harrow et al., Genome Res. (2012) 22(9): 1760-1774). Using unique and multimapped transcriptomic alignments, gene-level abundance estimates were computed using RSEM version 1.3.0 (Li and Dewey, BMC Bioinformatics (2011) 12:323) in a strand-aware manner, and including confidence interval sampling calculations, to arrive at posterior mean estimates (PME) of abundances (counts and normalized FPKM—fragments per kilobase of exon per million mapped fragments) from the underlying Bayesian model. Standard QC were applied (read integrity, mapping statistics, library complexity, fragment bias) to remove unsatisfactory samples.
`Cl.Clc1cccc(N2CCNCC2)c1` [1(3-Chlorophenyl)piperazine HCl]: the “ANGPTL3-LINEAR FOLD CHANGE” value is 0.4414. Take `CCN1CCN(Cc2ccc(-c3cc4c(N[C@H](C)c5ccccc5)ncnc4[nH]3)cc2)CC1` [AEE788 (NVP-AEE788)]: the “ANGPTL3-LINEAR FOLD CHANGE” value is recorded as 0.1684. Turning to `COc1cc(N2CCC(N3CCN(C)CC3)CC2)ccc1Nc1ncnc(Nc2ccccc2S(=O)(=O)C(C)C)n1` [ASP3026], the “ANGPTL3-LINEAR FOLD CHANGE” value is recorded as 0.3923.

Regarding `N#Cc1ccc2[nH]c(O)c(-c3ccc(CN4CCOCC4)cn3)c2c1` [AZD1080], the “ANGPTL3-LINEAR FOLD CHANGE” value is 0.2238. Then `COc1cc(C)c(/C=C/C(C)=C/C=C/C(C)=C/C(=O)O)c(C)c1C` [Acitretin], with 0.4763; and `Nc1ncn([C@@H]2O[C@H](CO)[C@@H](O)[C@H]2O)c(=O)n1` [Azacitidine], with 0.2316. Then `CC[C@@H]1C(=O)N(C)c2cnc(Nc3ccc(C(=O)NC4CCN(C)CC4)cc3OC)nc2N1C1CCCC1` [BI 2536], with 0.2045; and `CC(C)NC(=O)C1CCC(n2c(NC(=O)c3ccc(F)cc3)nc3ccc(CN4CCC(C(C)(C)O)CC4)cc32)CC1` (stereo not drawn) [Belizatinib (TSR-011), Belizatinib], with 0.3121; and `COCCOCOc1cc2ccc(-c3ccc(C(=O)O)cc3)cc2cc1C12CC3CC(CC(C3)C1)C2` [CD 2665], with 0.395. In the case of `NC(=O)N[C@@H](CCC(=O)O)C(=O)O` [Carglumic Acid] it was 0.1975; in that of `C[C@@H](NCCCc1cccc(C(F)(F)F)c1)c1cccc2ccccc12` [Cinacalcet HCl], 0.3789. For `O=C(c1ccc(F)c(F)c1Nc1ccc(I)cc1F)N1CC(O)([C@@H]2CCCCN2)C1` [Cobimetinib (GDC-0973, RG7420), Cobimetinib], the “ANGPTL3-LINEAR FOLD CHANGE” value turned out to be 0.2333.

Turning to `CO[C@H]1C[C@@H]2CC[C@@H](C)[C@@](O)(O2)C(=O)C(=O)N2CCCC[C@H]2C(=O)O[C@H]([C@H](C)C[C@@H]2CC[C@@H](OCCO)[C@H](OC)C2)CC(=O)[C@H](C)/C=C(\C)[C@@H](O)[C@@H](OC)C(=O)[C@H](C)C[C@H](C)/C=C/C=C/C=C/1C` [Everolimus (RAD001), Everolimus], the “ANGPTL3-LINEAR FOLD CHANGE” value is reported as 0.483. In the case of `Cc1cnc(Nc2ccc(OCCN3CCCC3)cc2)nc1Nc1cccc(S(=O)(=O)NC(C)(C)C)c1` [Fedratinib (SAR302503, TG101348), Fedratinib] it was 0.1119; in that of `COCCCC/C(=N\OCCN)c1ccc(C(F)(F)F)cc1` [Fluvoxamine maleate], 0.3231. Consider `COc1cc2c(Oc3ccc(NC(=O)C4(C(=O)Nc5ccc(F)cc5)CC4)cc3F)ccnc2cc1OCCCN1CCOCC1` [Foretinib (GSK1363089), Foretinib], for which the “ANGPTL3-LINEAR FOLD CHANGE” value was determined as 0.3368.

Turning to `CCNC(=O)Nc1ccc(-c2nc3c(c(N4CCOC[C@@H]4C)n2)CCN(C2COC2)C3)cc1` [GDC-0349], the “ANGPTL3-LINEAR FOLD CHANGE” value amounted to 0.4506. Then `C[C@@H](Oc1cc(-n2cnc3ccc(CN4CCN(C)CC4)cc32)sc1C(N)=O)c1ccccc1C(F)(F)F` [GSK461364], with 0.3078; and `CNc1nc(-c2ccc3c(N)n[nH]c3c2)cc(N2C[C@@H](C(=O)NC3CCCCC3)CC[C@H]2C)n1` [GSK2334470], with 0.4538; and `O=C(O)Cc1cccc(OCCCN(Cc2cccc(C(F)(F)F)c2Cl)CC(c2ccccc2)c2ccccc2)c1` [GW3965], with 2.071. As for `c1ccc2c(CCNc3ccc(Nc4ccncc4)cc3)c[nH]c2c1` [JNJ-26854165 (Serdemetan), Serdemetan], the “ANGPTL3-LINEAR FOLD CHANGE” value was 0.1817. On to `Cc1c(OCC(F)(F)F)ccnc1C[S+]([O-])c1nc2ccccc2[nH]1` (stereo not drawn) [Lansoprazole], for which the “ANGPTL3-LINEAR FOLD CHANGE” value was determined as 0.4763. For the molecule `O=C1CCc2c(Oc3ccc4c(c3)[C@@H]3[C@H](O4)[C@H]3c3nc4ccc(C(F)(F)F)cc4[nH]3)ccnc2N1` [Lifirafenib (BGB-283), Lifirafenib], the “ANGPTL3-LINEAR FOLD CHANGE” value turned out to be 0.3585. In the case of `O=C(O)c1ccc(Nc2ncc3c(n2)-c2ccc(Cl)cc2C(c2c(F)cccc2F)=NC3)cc1` [MLN8054] it was 0.2755; in that of `FC(F)(F)c1ccc(/C=C/c2nc(COc3ccc(CCCCn4ccnn4)cc3)co2)cc1` [Mubritinib (TAK 165), Mubritinib], 0.3392. Then `COc1cc(N)c(Cl)cc1C(=O)NC1CCNCC1OC` (stereo not drawn) [NORCISAPRIDE HYDROCHLORIDE], with 0.3763; and `C=CC(=O)Nc1cccc(Oc2nc(Nc3ccc(N4CCN(C)CC4)cc3)nc3ccsc23)c1` [Olmutinib (HM61713, BI 1482694), Olmutinib], with 0.3057; and `CNC(=O)c1ccc(C)c(-n2c(C)cc(OCc3ccc(F)cc3F)c(Br)c2=O)c1` [PH-797804], with 0.2736.

For the molecule `NCCC(O)(P(=O)(O)O)P(=O)(O)O` [Pamidronate], the “ANGPTL3-LINEAR FOLD CHANGE” value is on record as 0.1528. Take `N=C(N)c1ccc(OCCCCCOc2ccc(C(=N)N)cc2)cc1` [Pentamidine isethionate]: the “ANGPTL3-LINEAR FOLD CHANGE” value amounted to 0.1321. As to `CC(=O)c1ccc2c(c1)N(CCCN1CCC(CCO)CC1)c1ccccc1S2` [Piperacetazine], the “ANGPTL3-LINEAR FOLD CHANGE” value is 0.4033.

Turning to `[H]/N=C(\N/C(=N/[H])Nc1ccc(Cl)cc1)NC(C)C` [Proguanil], the “ANGPTL3-LINEAR FOLD CHANGE” value stood at 0.3536.

`CCC[C@@H]1CC2=CC(=O)CC[C@]2(C)[C@H]2CC[C@@]3(C)[C@@H](CC[C@@]3(O)CCC(=O)[O-])[C@H]12.[K+]` [RU 28318]: the “ANGPTL3-LINEAR FOLD CHANGE” value is given as 0.4005. In the case of `Cc1nc2n(c(=O)c1CCN1CCC(c3noc4cc(F)ccc34)CC1)CCCC2` [Risperidone] it was 0.3231; in that of `C/C=C1\NC(=O)[C@H]2CSSCC/C=C/[C@H](CC(=O)N[C@H](C(C)C)C(=O)N2)OC(=O)[C@H](C(C)C)NC1=O` [Romidepsin (FK228, Depsipeptide), Romidepsin], 0.1349; in that of `C[C@@H]1CN(Cc2ccc(F)cc2)[C@@H](C)CN1C(=O)c1cc2c(C(=O)C(=O)N(C)C)cn(C)c2cc1Cl` [SCIO-469], 0.3711. Then `Cc1cc(C)c(/C=C2\C(=O)Nc3ccccc32)[nH]1` [Semaxinib, Semaxanib], with 0.2449. Then `CCC(C)(C)C(=O)O[C@H]1C[C@@H](C)C=C2C=C[C@H](C)[C@H](CC[C@@H]3C[C@@H](O)CC(=O)O3)[C@H]21` [Simvastatin], with 0.2588; and `Cc1c(C(=O)Nc2ccc(N3C[C@@H](C)O[C@@H](C)C3)nc2)cccc1-c1ccc(OC(F)(F)F)cc1` [Sonidegib (Erismodegib, NVP-LDE225), Sonidegib], with 0.4897; and `CC(C)(Sc1cc(C(C)(C)C)c(O)c(C(C)(C)C)c1)Sc1cc(C(C)(C)C)c(OC(=O)CCC(=O)O)c(C(C)(C)C)c1` [Succinobucol], with 0.3896. With `CC(C)(O)CC(=O)NCCn1ccc2ncnc(Nc3ccc(Oc4cccc(C(F)(F)F)c4)c(Cl)c3)c21` [TAK-285], the “ANGPTL3-LINEAR FOLD CHANGE” value is 0.3842.

For `CCc1nc(-c2cccc(C)c2)c(-c2ccnc(NC(=O)c3ccccc3)c2)s1` [TAK-715], the “ANGPTL3-LINEAR FOLD CHANGE” value came out at 0.4538.

These data come from patent US20210161997A1, “TREATING DISEASES VIA TARGETED MODULATION OF GENE SIGNALING NETWORKS” (Camp4 Therapeutics Corporation, priority 2018, published 2021).
